# ChEMBL document CHEMBL3124779, “Discovery of ABT-267, a pan-genotypic inhibitor of HCV NS5A” (J Med Chem, 2014)
# How the values were obtained:
# [1] = tested on: Hepatitis C virus; test: Resistant ratio of EC50 for wild type HCV1a to EC50 for HCV1a harboring NS5A M28V mutant infected in human HuH7 cells; type: functional, Hepacivirus hominis, subtype 1a, Huh-7
# [2] = Clearance in monkey at 1 mg/kg, iv; type: ADME, organism-based, Macaca mulatta; set-up: dose 1 mg/kg, route intravenous; settings: rhesus monkey, in vivo
# [3] = tested on: Hepatitis C virus; test: Antiviral activity in HCV1 infected in human assessed as log reduction of viral RNA at 5 to 200 mg qd for 3 days relative to control; type: functional, Hepacivirus hominis, genotype 1
# [4] = tested on: Hepatitis C virus; test: Antiviral activity against HCV1a H77 infected in human HuH7 cells assessed as inhibition of viral replication after 4 days by luciferase reporter gene assay in presence of 40% human plasma; type: functional, organism-based, Hepacivirus hominis; settings: genotype 1a H77, Huh-7, Plasma, 96 h
# [5] = tested on: Hepatitis C virus; test: Antiviral activity against HCV1a harboring NS5A Y93H mutant infected in human HuH7 cells assessed as inhibition of viral replication after 4 days by luciferase reporter gene assay; type: functional, Hepacivirus hominis, subtype 1a, Huh-7
# [6] = Lipophilicity, log D of the compound at pH 7.4 by HPLC analysis; type: physicochemical; settings: buffer
# [7] = Metabolic stability in rat liver microsomes assessed as compound remaining after 30 mins; type: ADME; settings: read-out: Stability
# [8] = tested on: Hepatitis C virus; test: Antiviral activity against HCV1a harboring NS5A Y93C mutant infected in human HuH7 cells assessed as inhibition of viral replication after 4 days by luciferase reporter gene assay; type: functional, Hepacivirus hominis, subtype 1a, Huh-7
# [9] = tested on: Hepatitis C virus; test: Antiviral activity against HCV1a harboring NS5A M28V mutant infected in human HuH7 cells assessed as inhibition of viral replication after 4 days by luciferase reporter gene assay; type: functional, Hepacivirus hominis, subtype 1a, Huh-7
# [10] = tested on: Hepatitis C virus; test: Antiviral activity against HCV3a infected in human HuH7 cells assessed as inhibition of viral replication after 4 days by luciferase reporter gene assay; type: functional, organism-based, Hepacivirus hominis; settings: genotype 3a, Huh-7, 96 h
# [11] = tested on: Hepatitis C virus; test: Antiviral activity against HCV1a harboring NS5A H58D mutant infected in human HuH7 cells assessed as inhibition of viral replication after 4 days by luciferase reporter gene assay; type: functional, Hepacivirus hominis, subtype 1a, Huh-7
# [12] = tested on: Hepatitis C virus; test: Resistant ratio of EC50 for wild type HCV1b to EC50 for HCV1b harboring NS5A L31M and Y93H mutant infected in human HuH7 cells; type: functional, Hepacivirus hominis, genotype 1b, Huh-7
# [13] = Oral bioavailability in monkey at 2.5 mg/kg; type: ADME, organism-based, Macaca mulatta; settings: rhesus monkey, in vivo
# [14] = Volume of distribution at steady state in rat at 3 mg/kg, iv; type: ADME, organism-based; set-up: dose 3 mg/kg, route intravenous; settings: in vivo, read-out: Vdss
# [15] = tested on: Hepatitis C virus; test: Antiviral activity against HCV1b harboring NS5A L31M and Y93H mutant infected in human HuH7 cells assessed as inhibition of viral replication after 4 days by luciferase reporter gene assay; type: functional, Hepacivirus hominis, genotype 1b, Huh-7
# [16] = Half life in dog at 1 mg/kg, iv; type: ADME, organism-based, Canis lupus familiaris; set-up: dose 1 mg/kg, route intravenous; settings: in vivo
# [17] = AUC in dog at 2.5 mg/kg, po; type: ADME, organism-based, Canis lupus familiaris; set-up: dose 2.5 mg/kg, route oral; settings: plasma
# [18] = Cmax in rat at 3 mg/kg, po; type: ADME, organism-based; set-up: dose 3 mg/kg, route oral; settings: in vivo
# [19] = tested on: Hepatitis C virus; test: Resistant ratio of EC50 for wild type HCV1b to EC50 for HCV1b harboring NS5A L28M and Y93H mutant infected in human HuH7 cells; type: functional, Hepacivirus hominis, genotype 1b, Huh-7
# [20] = Volume of distribution at steady state in dog at 1 mg/kg, iv; type: ADME, organism-based, Canis lupus familiaris; set-up: dose 1 mg/kg, route intravenous; settings: in vivo, read-out: Vdss
# [21] = tested on: Hepatitis C virus; test: Antiviral activity against HCV1b harboring NS5A L31V and Y93H mutant infected in human HuH7 cells assessed as inhibition of viral replication after 4 days by luciferase reporter gene assay; type: functional, Hepacivirus hominis, genotype 1b, Huh-7
# [22] = tested on: Hepatitis C virus; test: Antiviral activity against HCV1b harboring NS5A L31F and Y93H mutant infected in human HuH7 cells assessed as inhibition of viral replication after 4 days by luciferase reporter gene assay; type: functional, Hepacivirus hominis, genotype 1b, Huh-7
# [23] = tested on: Hepatitis C virus; test: Antiviral activity against HCV1b harboring NS5A L28M and Y93H mutant infected in human HuH7 cells assessed as inhibition of viral replication after 4 days by luciferase reporter gene assay; type: functional, Hepacivirus hominis, genotype 1b, Huh-7
# [24] = tested on: Hepatitis C virus; test: Ratio of EC50 for HCV1a H77 infected in human HuH7 cells in presence of 40% human plasma to EC50 for HCV1a H77 infected in human HuH7 cells in absence of 40% human plasma; type: functional, Hepacivirus hominis, genotype 1a H77, Huh-7
# [25] = tested on: Hepatitis C virus; test: Resistant ratio of EC50 for wild type HCV1b to EC50 for HCV1b harboring NS5A L31V mutant infected in human HuH7 cells; type: functional, Hepacivirus hominis, genotype 1b, Huh-7
# [26] = Oral bioavailability in dog at 2.5 mg/kg; type: ADME, organism-based, Canis lupus familiaris; settings: in vivo
# [27] = tested on: Hepatitis C virus; test: Resistant ratio of EC50 for wild type HCV1a to EC50 for HCV1a harboring NS5A M28T mutant infected in human HuH7 cells; type: functional, Hepacivirus hominis, subtype 1a, Huh-7
# [28] = organism: Homo sapiens; test: Toxicity in HCV1 infected patient assessed as mortality at 5 to 200 mg qd for 3 days; type: organism-based; settings: in vivo, 72 h
# [29] = tested on: Hepatitis C virus; test: Resistant ratio of EC50 for wild type HCV1a to EC50 for HCV1a harboring NS5A Q30R mutant infected in human HuH7 cells; type: functional, Hepacivirus hominis, subtype 1a, Huh-7
# [30] = Cmax in HCV1 infected patient at 5 to 200 mg qd for 3 days; type: ADME, organism-based; settings: human, in vivo
# [31] = Cmax in monkey at 2.5 mg/kg, po; type: ADME, organism-based, Macaca mulatta; set-up: dose 2.5 mg/kg, route oral; settings: rhesus monkey, in vivo
# [32] = tested on: Hepatitis C virus; test: Antiviral activity against HCV1b Con1 infected in human HuH7 cells assessed as inhibition of viral replication after 4 days by luciferase reporter gene assay in presence of 40% human plasma; type: functional, organism-based, Hepacivirus hominis; settings: isolate Con1, Huh-7, Plasma, 96 h
# [33] = organism: Homo sapiens; test: Toxicity in HCV1 infected patient assessed as adverse event at 5 to 200 mg qd for 3 days; type: organism-based; settings: in vivo, 72 h
# [34] = Half life in rat at 3 mg/kg, po; type: ADME, organism-based; set-up: dose 3 mg/kg, route oral; settings: in vivo
# [35] = Tmax in dog at 2.5 mg/kg, po; type: ADME, organism-based, Canis lupus familiaris; set-up: dose 2.5 mg/kg, route oral; settings: in vivo
# [36] = tested on: Hepatitis C virus; test: Antiviral activity against HCV1b harboring NS5A L31V mutant infected in human HuH7 cells assessed as inhibition of viral replication after 4 days by luciferase reporter gene assay; type: functional, Hepacivirus hominis, genotype 1b, Huh-7
# [37] = AUC in rat at 3 mg/kg, po; type: ADME, organism-based; set-up: dose 3 mg/kg, route oral; settings: plasma
# [38] = Clearance in rat at 3 mg/kg, iv; type: ADME, organism-based; set-up: dose 3 mg/kg, route intravenous; settings: in vivo
# [39] = tested on: Hepatitis C virus; test: Resistant ratio of EC50 for wild type HCV1a to EC50 for HCV1a harboring NS5A Y93N mutant infected in human HuH7 cells; type: functional, Hepacivirus hominis, subtype 1a, Huh-7
# [40] = Tmax in monkey at 2.5 mg/kg, po; type: ADME, organism-based, Macaca mulatta; set-up: dose 2.5 mg/kg, route oral; settings: rhesus monkey, in vivo
# [41] = tested on: Hepatitis C virus; test: Resistant ratio of EC50 for wild type HCV1a to EC50 for HCV1a harboring NS5A Y93H mutant infected in human HuH7 cells; type: functional, Hepacivirus hominis, subtype 1a, Huh-7
# [42] = tested on: Hepatitis C virus; test: Antiviral activity against HCV1b harboring NS5A L31F mutant infected in human HuH7 cells assessed as inhibition of viral replication after 4 days by luciferase reporter gene assay; type: functional, Hepacivirus hominis, genotype 1b, Huh-7
# [43] = Kinetic solubility of the compound in 10 mM of phosphate buffer at pH 7.2 by CLND method; type: physicochemical; settings: read-out: Kinetic_solubility
# [44] = Tmax in rat at 3 mg/kg, po; type: ADME, organism-based; set-up: dose 3 mg/kg, route oral; settings: in vivo
# [45] = tested on: Hepatitis C virus; test: Ratio of EC50 for HCV1b Con1 infected in human HuH7 cells in presence of 40% human plasma to EC50 for HCV1b Con1 infected in human HuH7 cells in absence of 40% human plasma; type: functional, Hepacivirus hominis, isolate Con1, Huh-7
# [46] = Half life in HCV1 infected patient at 5 to 200 mg qd for 3 days; type: ADME, organism-based; settings: human, in vivo
# [47] = tested on: Hepatitis C virus; test: Antiviral activity against HCV1a harboring NS5A Y93N mutant infected in human HuH7 cells assessed as inhibition of viral replication after 4 days by luciferase reporter gene assay; type: functional, Hepacivirus hominis, subtype 1a, Huh-7
smiles,measurement,setting,value
COC(=O)N[C@H](C(=O)N1CCC[C@H]1C(=O)Nc1ccc([C@@H]2CC[C@@H](c3ccc(NC(=O)[C@@H]4CCCN4C(=O)[C@@H](NC(=O)OC)C(C)C)cc3)N2c2ccc(C(C)(C)C)cc2)cc1)C(C)C [OMBITASVIR],Ratio EC50,[1],58
same,clearance,[2],6.33 mL/min/kg
same,Activity,[3],<=3.1 log10IU/ml
same,EC50,[4],0.186 nM
same,Efficacy,[5],18%
same,logD,[6],5.4
same,remaining at 0.5 h,[7],73%
same,Efficacy,[8],24%
same,Efficacy,[9],87%
same,EC50,[10],0.0193 nM
same,Efficacy,[11],66%
same,Ratio EC50,[12],142
same,bioavailability,[13],35%
same,Vd,[14],5.9 L/kg
same,Efficacy,[15],11%
same,half-life,[16],7.9 h
same,AUC,[17],8000 ng·h/mL
same,Cmax,[18],10 ng/mL
same,Ratio EC50,[19],415
same,Vd,[20],1.8 L/kg
same,Efficacy,[21],24%
same,Efficacy,[22],35%
same,Efficacy,[23],104%
same,Ratio EC50,[24],13
same,Ratio EC50,[25],8
same,bioavailability,[26],57%
same,Ratio EC50,[27],8965
same,Activity,[28],Non-toxic
same,Ratio EC50,[29],800
same,Cmax,[30],5.7 ng/mL
same,Cmax,[31],290 ng/mL
same,EC50,[32],0.056 nM
same,Activity,[33],Non-toxic
same,half-life,[34],15.9 h
same,Tmax,[35],3.3 h
same,Efficacy,[36],86%
same,AUC,[37],290 ng·h/mL
same,clearance,[38],10.8 mL/min/kg
same,Ratio EC50,[39],66739
same,Tmax,[40],3.3 h
same,Ratio EC50,[41],41382
same,Efficacy,[42],127%
same,solubility kinetic,[43],2.7 µM
same,Tmax,[44],3.7 h
same,Ratio EC50,[45],11
same,half-life,[46],25 h
same,Efficacy,[47],25%
